Assays:
[1] = target: T1, Peroxisome proliferator-activated receptor gamma (Homo sapiens, UniProt P37231); format: functional, cell-based, CV-1
T1 sequence (P37231 whole entry): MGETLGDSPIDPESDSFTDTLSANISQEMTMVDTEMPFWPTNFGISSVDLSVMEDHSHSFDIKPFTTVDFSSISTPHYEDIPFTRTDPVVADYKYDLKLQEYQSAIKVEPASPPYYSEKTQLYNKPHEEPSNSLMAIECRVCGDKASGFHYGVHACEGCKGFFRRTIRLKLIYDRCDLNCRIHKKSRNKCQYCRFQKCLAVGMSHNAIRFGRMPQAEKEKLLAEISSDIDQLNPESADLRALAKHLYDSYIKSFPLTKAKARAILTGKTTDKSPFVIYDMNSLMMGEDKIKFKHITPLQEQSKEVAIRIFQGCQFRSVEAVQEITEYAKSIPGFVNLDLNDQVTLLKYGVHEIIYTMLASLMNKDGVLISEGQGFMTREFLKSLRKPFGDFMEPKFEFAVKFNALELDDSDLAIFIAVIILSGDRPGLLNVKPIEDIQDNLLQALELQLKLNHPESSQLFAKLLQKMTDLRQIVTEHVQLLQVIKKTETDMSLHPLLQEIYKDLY
Description: Agonist potency at PPARgamma in CV1 cells by cell based transient transfection assay

[2] = target: T2, Peroxisome proliferator-activated receptor delta (Homo sapiens, UniProt Q03181)
T2 sequence (Q03181 whole entry): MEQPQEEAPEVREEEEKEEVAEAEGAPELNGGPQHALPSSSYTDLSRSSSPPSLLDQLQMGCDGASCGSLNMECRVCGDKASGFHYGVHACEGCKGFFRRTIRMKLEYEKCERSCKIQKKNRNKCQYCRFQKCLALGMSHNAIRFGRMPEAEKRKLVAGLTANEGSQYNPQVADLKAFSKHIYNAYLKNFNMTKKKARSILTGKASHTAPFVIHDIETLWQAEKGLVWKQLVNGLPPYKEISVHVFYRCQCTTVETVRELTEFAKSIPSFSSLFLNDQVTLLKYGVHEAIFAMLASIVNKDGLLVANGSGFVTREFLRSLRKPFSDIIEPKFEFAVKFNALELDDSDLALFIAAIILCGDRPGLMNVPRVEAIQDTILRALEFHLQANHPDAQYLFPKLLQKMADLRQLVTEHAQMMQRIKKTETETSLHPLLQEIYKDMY
Description: Agonist potency at PPARdelta in CV1 cells by cell based transient transfection assay

[3] = target: T3, Peroxisome proliferator-activated receptor alpha (Homo sapiens, UniProt Q07869)
T3 sequence (Q07869 whole entry): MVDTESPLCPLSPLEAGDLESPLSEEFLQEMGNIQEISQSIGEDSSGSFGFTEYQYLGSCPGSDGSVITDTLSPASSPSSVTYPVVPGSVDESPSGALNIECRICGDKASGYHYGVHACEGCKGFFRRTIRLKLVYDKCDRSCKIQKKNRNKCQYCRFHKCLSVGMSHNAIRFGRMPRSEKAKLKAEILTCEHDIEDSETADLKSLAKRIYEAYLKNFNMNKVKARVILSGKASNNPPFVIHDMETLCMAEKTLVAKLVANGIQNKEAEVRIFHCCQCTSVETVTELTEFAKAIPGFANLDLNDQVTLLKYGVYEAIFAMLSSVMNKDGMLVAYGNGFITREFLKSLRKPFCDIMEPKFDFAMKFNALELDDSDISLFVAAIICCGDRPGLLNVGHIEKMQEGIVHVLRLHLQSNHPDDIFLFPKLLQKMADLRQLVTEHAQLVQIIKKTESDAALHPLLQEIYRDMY
Description: Agonist potency at PPARalpha in CV1 cells by cell based transient transfection assay

[4] = target: T4, Peroxisome proliferator-activated receptor alpha (Homo sapiens) (UniProt Q07869); assay: Agonist potency at PPARalpha expressed in CV1 cells relative to GW-590735; format: functional, cell-based; conditions: CV-1
T4 sequence (whole entry): T3 sequence (Q07869 whole entry)

[5] = tested on: Mus musculus; assay: Increase in HDL cholesterol level in human Apo-A-I transgenic C57BL/6 mouse at 50 mg/kg; format: functional
[6] = tested on: Mus musculus; assay: Decrease in plasma TG level in human Apo-A-I transgenic C57BL/6 mouse at 50 mg/kg; format: functional; design: scale not given: the % may be the effect or the level left
[7] = tested on: Mus musculus; assay: Decrease in plasma VLDL level in human Apo-A-I transgenic C57BL/6 mouse at 50 mg/kg; format: functional; design: scale not given: the % may be the effect or the level left
[8] = tested on: Mus musculus; assay: Decrease in LDL cholesterol level in human Apo-A-I transgenic C57BL/6 mouse at 50 mg/kg; format: functional; design: scale not given: the % may be the effect or the level left

| SMILES | EC50 [1] | EC50 [2] | EC50 [3] | Activity [4] | Activity [5] | Activity [6] | Activity [7] | Activity [8] |
| --- | --- | --- | --- | --- | --- | --- | --- | --- |
| Cc1nc(-c2ccc([N+](=O)[O-])cc2)sc1C(=O)NCc1ccc(OC(C)(C)C(=O)O)cc1 | > 10 µM | > 10 µM | 30 nM | 111% |  |  |  |  |
| Cc1nc(-c2cccc(C(F)(F)F)c2)sc1C(=O)NCc1ccc(OC(C)(C)C(=O)O)cc1 | > 25 µM | > 25 µM | 4 nM | 106% |  |  |  |  |
| Cc1nc(C(=O)NCc2ccc(OC(C)(C)C(=O)O)cc2)c(C)s1 | > 10 µM | 0.66 µM | 1890 nM | 171% |  |  |  |  |
| CC(C)(Oc1ccc(CNC(=O)c2sc(-c3ccc(C(F)(F)F)cc3)nc2C(F)(F)F)cc1)C(=O)O | 0.73 µM | 8.24 µM | 4 nM | 98% |  |  |  |  |
| Cc1nc(-c2ccc(C(F)(F)F)cc2)sc1CCc1ccc(OC(C)(C)C(=O)O)cc1 | 1.87 µM | 0.02 µM | 210 nM | 138% |  |  |  |  |
| Cc1nc(-c2ccc(C(F)(F)F)cc2)sc1CNCc1ccc(OC(C)(C)C(=O)O)cc1 | > 10 µM | 4.05 µM | 70 nM | 110% |  |  |  |  |
| Cc1cc(SCc2sc(-c3ccc(C(F)(F)F)cc3)nc2C)ccc1OCC(=O)O |  |  |  | 108% |  |  |  |  |
| Cc1nc(-c2ccccc2C(F)(F)F)sc1C(=O)NCc1ccc(OC(C)(C)C(=O)O)cc1 | > 25 µM | 0.808 µM | 465 nM | 82% |  |  |  |  |
| Cc1nc(-c2ccc(C(C)(C)C)cc2)sc1C(=O)NCc1ccc(OC(C)(C)C(=O)O)cc1 | 0.86 µM | > 10 µM |  | 66% |  |  |  |  |
| Cc1nc(-c2ccc(Cl)cc2)sc1C(=O)NCc1ccc(OC(C)(C)C(=O)O)cc1 | > 10 µM |  | 10 nM | 94% |  |  |  |  |
| Cc1nc(-c2ccc(C(F)(F)F)cc2)sc1C(=O)Nc1ccc(OC(C)(C)C(=O)O)cc1 | > 10 µM | > 10 µM | 9500 nM | 69% |  |  |  |  |
| Cc1nc(-c2ccc(C(F)(F)F)cc2)sc1C(=O)NCCc1ccc(OC(C)(C)C(=O)O)cc1 | > 10 µM | > 10 µM | 110 nM | 129% |  |  |  |  |
| Cc1nc(-c2ccc(O)cc2)sc1C(=O)NCc1ccc(OC(C)(C)C(=O)O)cc1 | > 10 µM | > 10 µM | > 10000 nM |  |  |  |  |  |
| Cc1nc(-c2ccc(OS(C)(=O)=O)cc2)sc1C(=O)NCc1ccc(OC(C)(C)C(=O)O)cc1 | > 10 µM | > 10 µM | > 10000 nM |  |  |  |  |  |
| Cc1nc(-c2ccc(C(F)(F)F)cc2)sc1C(=O)N(C)Cc1ccc(OC(C)(C)C(=O)O)cc1 | > 10 µM | > 10 µM | 240 nM | 84% |  |  |  |  |
| Cc1nc(-c2ccc(OC(F)(F)F)cc2)sc1C(=O)NCc1ccc(OC(C)(C)C(=O)O)cc1 | > 10 µM |  |  | 116% |  |  |  |  |
| Cc1nc(-c2ccc(N)cc2)sc1C(=O)NCc1ccc(OC(C)(C)C(=O)O)cc1 | > 10 µM | > 10 µM | 5640 nM | 67% |  |  |  |  |
| Cc1cc(CCc2sc(-c3ccc(C(F)(F)F)cc3)nc2C)ccc1OCC(=O)O | 10 µM | 0.004 µM | 2000 nM | 85% |  |  |  |  |
| CC(C)OC(=O)C(C)(C)Oc1ccc(C(=O)c2ccc(Cl)cc2)cc1 [FENOFIBRATE] |  |  |  |  | 26% | 43% | 64% | 78% |
| Cc1nc(-c2ccc(C(F)(F)F)cc2)sc1CNC(=O)c1ccc(OC(C)(C)C(=O)O)cc1 | > 10 µM | 6.26 µM | 1320 nM | 109% |  |  |  |  |
| Cc1nc(-c2ccc(F)cc2)sc1C(=O)NCc1ccc(OC(C)(C)C(=O)O)cc1 | > 10 µM | > 10 µM | 40 nM | 118% |  |  |  |  |
| COc1ccc(-c2nc(C)c(C(=O)NCc3ccc(OC(C)(C)C(=O)O)cc3)s2)cc1 | > 10 µM | > 10 µM | 10 nM | 103% |  |  |  |  |

From ChEMBL document CHEMBL1141367, “Substituted 2-[(4-aminomethyl)phenoxy]-2-methylpropionic acid PPARalpha agonists. 1. Discovery of a novel series of potent HDLc raising agents” (J Med Chem, 2007)
